# Reference: ChEMBL document CHEMBL4130627, “Prodrugs of the Phosphoribosylated Forms of Hydroxypyrazinecarboxamide Pseudobase T-705 and Its De-Fluoro Analogue T-1105 as Potent Influenza Virus Inhibitors” (J Med Chem, 2018)
# The source made the active and inactive calls. The calls are words filed in the database; no cut-off is given here.
# Experiments:
# [1] = tested on: Influenza B virus; test: microbe, parasite or virus in culture; details: Ned/537/05, MDCK, 72 h
# Description: Antiviral activity against Influenza virus B/Ned/537/05 infected in MDCK cells assessed as reduction in viral replication at 3 days post infection by formazan-based MTS assay
# [2] = Cytotoxicity against MDCK cells assessed as change in cell morphology after 3 days by microscopic analysis; format: cell-based, Canis lupus familiaris; details: dog
# [3] = tested on: Influenza A virus; test: microbe, parasite or virus in culture; details: MDCK, 72 h
# Description: Antiviral activity against Influenza virus A/X-31 infected in MDCK cells assessed as reduction in viral replication at 3 days post infection by microscopic analysis
# [4] = Prodrug activation in phosphate buffer at pH 7.3 assessed as half life for T-1105-RMP formation up to 332 hrs by RP-HPLC-UV analysis; format: physicochemical; details: pH 7.3, 332 h
# [5] = Cytotoxicity against MDCK cells assessed as reduction in cell viability after 3 days by formazan-based MTS assay; parameters: species or system Canis lupus familiaris; details: dog
# [6] = tested on: Influenza B virus; test: microbe, parasite or virus in culture; details: Ned/537/05, MDCK, 72 h; remark: listed apart in the source
# Description: Antiviral activity against Influenza virus B/Ned/537/05 infected in MDCK cells assessed as reduction in viral replication at 3 days post infection by microscopic analysis
# [7] = tested on: Influenza A virus; test: microbe, parasite or virus in culture; details: MDCK, 72 h; remark: listed apart in the source
# Description: Antiviral activity against Influenza virus A/X-31 infected in MDCK cells assessed as reduction in viral replication at 3 days post infection by formazan-based MTS assay
# [8] = Cytotoxicity against HGPRT deficient 6-thioguanine-resistant MDCK cells assessed as change in cell morphology after 3 days by microscopic analysis; format: cell-based, Canis lupus familiaris; details: dog
# [9] = Inhibition of Influenza virus A/X-31 RNA dependent RNA polymerase using ApG primer [adenyl (3'-5') guanosine] and [8-3H]GTP after 1 hr by filter-based assay; parameters: species or system Influenza A virus (A/X-31(H3N2))
# [10] = Half life of the compound in 25 mM phosphate buffe at pH 1.5 to 7.3 by RP-HPLC analysis; format: physicochemical; details: phosphate buffer
# [11] = tested on: MDCK; format: cell-based, Canis lupus familiaris; details: dog, 2 h, 500 µM
# [12] = tested on: MDCK; test: Prodrug activation in MDCK cells assessed as T-1105-RDP formation at 500 uM after 2 hrs by RP-HPLC-UV analysis; format: cell-based, Canis lupus familiaris; details: dog
# [13] = Drug metabolism in MDCK cells assessed as T-1105-RDP formation at 450 uM up to 4 hrs by RP-HPLC-UV analysis; format: ADME, cell-based, Canis lupus familiaris; details: dog
# [14] = Inhibition of Influenza virus B/Ned/537/05 RNA dependent RNA polymerase using ApG primer [adenyl (3'-5') guanosine] and [8-3H]GTP after 1 hr by filter-based assay
# [15] = tested on: MDCK; test: Prodrug activation in MDCK cells assessed as T-1105-RMP formation at 450 uM up to 4 hrs by RP-HPLC-UV analysis; format: cell-based, Canis lupus familiaris; details: dog
# [16] = tested on: MDCK; test: Prodrug activation in MDCK cells assessed as T-1105-RTP formation at 450 uM up to 4 hrs by RP-HPLC-UV analysis; format: cell-based, Canis lupus familiaris; details: dog
# [17] = Drug metabolism in MDCK cells assessed as 4-((((((2R,3S,4R,5R)-5-(3-carbamoyl-2-oxopyrazin-1(2H)-yl)-3,4-dihydroxytetrahydrofuran-2-yl)methoxy)(hydroxy)phosphoryloxy)(hydroxy)phosphoryloxy)methyl)phenyl decanoate formation at 450 uM up to 4 hrs by RP-HPLC-UV analysis; format: ADME, cell-based, Canis lupus familiaris; details: dog
# [18] = tested on: MDCK; test: Prodrug activation in MDCK cells assessed as T-1105-RMP formation at 465 uM after 1 to 840 mins by RP-HPLC-UV analysis; format: cell-based, Canis lupus familiaris; details: dog
# [19] = tested on: MDCK; test: Prodrug activation in HGPRT deficient MDCK cells assessed as T-1105-RMP formation at 465 uM after 1 to 840 mins by RP-HPLC-UV analysis; format: cell-based, Canis lupus familiaris; details: dog
# [20] = Prodrug activation in phosphate buffer at pH 7.3 assessed as metabolite formation after 30 hrs by RP-HPLC chromatogram analysis; format: physicochemical; details: pH 7.3, 30 h
# [21] = biological target: T1, Liver carboxylesterase (Sus scrofa, UniProt Q29550); test: Drug metabolism assessed as pig liver esterase mediated 4-((((((2R,3S,4R,5R)-5-(3-carbamoyl-5-fluoro-2-oxopyrazin-1(2H)-yl)-3,4-dihydroxytetrahydrofuran-2-yl)methoxy)(hydroxy)phosphoryloxy)(hydroxy)[…])methyl)phenyl pentanoate formation at 450 uM after 2 hrs by RP-HPLC chromatogram analysis; format: ADME; details: isolated protein
# T1 sequence (Q29550 whole entry): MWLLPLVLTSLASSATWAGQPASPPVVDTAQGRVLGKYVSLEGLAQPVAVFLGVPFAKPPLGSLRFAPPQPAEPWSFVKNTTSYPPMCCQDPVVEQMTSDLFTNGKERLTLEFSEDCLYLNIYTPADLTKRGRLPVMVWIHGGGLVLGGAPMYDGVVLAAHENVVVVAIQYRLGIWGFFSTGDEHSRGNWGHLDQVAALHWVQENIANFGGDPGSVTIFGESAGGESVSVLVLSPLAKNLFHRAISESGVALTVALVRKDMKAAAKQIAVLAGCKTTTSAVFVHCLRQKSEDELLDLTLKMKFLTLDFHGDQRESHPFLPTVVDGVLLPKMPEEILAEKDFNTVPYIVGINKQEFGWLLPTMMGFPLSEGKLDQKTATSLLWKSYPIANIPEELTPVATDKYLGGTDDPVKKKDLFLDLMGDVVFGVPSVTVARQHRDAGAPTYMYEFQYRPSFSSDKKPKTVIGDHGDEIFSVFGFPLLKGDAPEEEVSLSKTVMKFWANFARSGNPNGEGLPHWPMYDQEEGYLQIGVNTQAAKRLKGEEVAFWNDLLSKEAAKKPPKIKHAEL
# [22] = biological target: T1, Liver carboxylesterase; test: Prodrug activation assessed as pig liver esterase mediated metabolite formation after 30 hrs by RP-HPLC chromatogram analysis; format: ADME; details: isolated protein
# [23] = Stability of the compound in phosphate buffer at pH 7.3 after 30 hrs by RP-HPLC chromatogram analysis; format: physicochemical; details: pH 7.3, 30 h
# [24] = tested on: Influenza A virus; format: functional, organism-based; details: Influenza A virus (A/X-31(H3N2)); MDCK; 250 uM
# [25] = tested on: Influenza A virus; format: functional, organism-based; details: Influenza A virus (A/X-31(H3N2)); MDCK; 100 uM
# [26] = tested on: Influenza A virus; format: functional, organism-based; details: Influenza A virus (A/X-31(H3N2)); MDCK; 250 uM; remark: listed apart in the source
# [27] = biological target: T1, Liver carboxylesterase; test: Drug metabolism assessed as pig liver esterase mediated 4-(((((((2R,3S,4R,5R)-5-(3-carbamoyl-2-oxopyrazin-1(2H)-yl)-3,4-dihydroxytetrahydrofuran-2-yl)methoxy)(hydroxy)phosphoryloxy)(hydroxy)phosphoryloxy)(hydroxy)phosphoryloxy)methyl)phenyl decanoate formation at 450 uM after 1 to 8 hrs by RP-HPLC-UV analysis; format: ADME; details: isolated protein
# [28] = tested on: MDCK; test: Prodrug activation in MDCK cells assessed as parent compound remaining at 714 uM after 25 hrs by RP-HPLC-UV analysis; format: cell-based, Canis lupus familiaris; details: dog
# [29] = tested on: MDCK; format: cell-based, Canis lupus familiaris; details: dog, 714 µM
# [30] = tested on: MDCK; test: Prodrug activation in MDCK cells assessed as T-705-RMP formation at 714 uM after 25 hrs by RP-HPLC-UV analysis; format: cell-based, Canis lupus familiaris; details: dog
SMILES,EC50 [1] [µM],MCC at 72 h [2] [µM],EC50 [3] [µM],CC50 at 72 h [5] [µM],EC50 [6] [µM],EC50 [7] [µM],MCC at 72 h [8] [µM],IC50 [9] [µM],other results
Cc1cccc2c1OP(=O)(OC[C@H]1O[C@@H](n3ccnc(C(N)=O)c3=O)[C@H](O)[C@@H]1O)OC2 (some centres not stated),135,> 400,280,> 400,176,> 400,> 400,,t1/2 [4]: 1.2 h
Nc1nc2c(ncn2[C@@H]2O[C@H](COP(=O)(O)OP(=O)(O)OP(=O)(O)O)C[C@H]2O)c(=O)[nH]1,,,,,,,,16,
Cc1cccc2c1OP(=O)(OC[C@@H]1C=C[C@H](n3cnc4c(=O)[nH]cnc43)O1)OC2 (some centres not stated),,,,,,,,,half-life [10]: 10 to 45 h
Nc1ncnc2c1ncn2[C@H]1CC[C@@H](COP2(=O)OCc3ccccc3O2)O1 (some centres not stated),,,,,,,,,half-life [10]: 10 to 45 h
CCCCCCCCCCCCCCC(=O)Oc1ccc(COP(=O)(OCc2ccc(OC(=O)CCCC)cc2)OP(=O)(O)OC[C@H]2O[C@@H](n3ccnc(C(N)=O)c3=O)[C@H](O)[C@@H]2O)cc1.CCN(CC)CC (some centres not stated),0.58,21,1.5,31,0.67,1.6,16,49 to 126,Drug metabolism [11]: Metabolite_Detected; Drug metabolism [12]: Metabolite_Detected; Drug metabolism [13]: Metabolite_Detected; IC50 [14]: 49 to 126 µM; Drug metabolism [15]: Metabolite_Detected; Drug metabolism [16]: Metabolite_Notdetected; Drug metabolism [17]: Metabolite_Detected
NC(=O)c1nccn([C@@H]2O[C@H](COP(=O)(O)OP(=O)(O)OP(=O)(O)O)[C@@H](O)[C@H]2O)c1=O,,,,,,,,0.48 to 9.8,Drug metabolism [18]: Metabolite_Detected; Drug metabolism [19]: Metabolite_Detected; IC50 [14]: 0.69 µM
NC(=O)c1nc(Br)cn([C@@H]2O[C@H](CO)[C@@H](O)[C@H]2O)c1=O,> 250,> 250,> 250,> 250,> 250,> 250,> 250,,
NC(=O)c1nc(F)cn([C@@H]2O[C@H](COP(=O)(O)OP(=O)(O)OP(=O)(O)O)[C@@H](O)[C@H]2O)c1=O,,,,,,,,2.7,IC50 [14]: 2.7 µM
CC(C)(C)c1cc2c(c(C(C)(C)C)c1)OP(=O)(OC[C@H]1O[C@@H](n3ccnc(C(N)=O)c3=O)[C@H](O)[C@@H]1O)OC2 (some centres not stated),,,,,,,,,t1/2 [4]: 16 h
NC(=O)c1nccn([C@@H]2O[C@H](CO)[C@@H](O)[C@H]2O)c1=O,19,> 250,58,> 250,24,52,> 250,,
CCCCCCCCCCCCCCC(=O)Oc1ccc(COP(=O)(OCc2ccc(OC(=O)CCCC)cc2)OP(=O)(O)OC[C@H]2O[C@@H](n3cc(F)nc(C(N)=O)c3=O)[C@H](O)[C@@H]2O)cc1.CCN(CC)CC (some centres not stated),3.5,21,5.4,35,7.2,10,16,,Drug metabolism [20]: Metabolite_Notdetected; Drug metabolism [21]: Metabolite_Detected; Drug metabolism [22]: Metabolite_Notdetected; Stability [23]: Unstable
Nc1nc2c(ncn2[C@@H]2O[C@H](COP(=O)(O)OP(=O)(O)OP(=O)(O)O)[C@@H](O)[C@H]2F)c(=O)[nH]1,,,,,,,,2.5,IC50 [14]: 4.4 µM
CCCCCCCCCCCCCCC(=O)Oc1ccc(COP(=O)(OCc2ccc(OC(=O)CCCC)cc2)OP(=O)(O)OP(=O)(O)OC[C@H]2O[C@@H](n3ccnc(C(N)=O)c3=O)[C@H](O)[C@@H]2O)cc1.CCN(CC)CC.CCN(CC)CC (some centres not stated),6,16,6,38,9.9,6.7,16,,Drug metabolism [11]: Metabolite_Detected; Drug metabolism [12]: Metabolite_Detected; Drug metabolism [13]: Metabolite_Detected; Drug metabolism [15]: Metabolite_Detected; Drug metabolism [16]: Metabolite_Notdetected; Drug metabolism [17]: Metabolite_Detected
COc1ccc2c(c1)COP(=O)(OC[C@@H]1C=C[C@H](n3cnc4c(N)ncnc43)O1)O2 (some centres not stated),,,,,,,,,half-life [10]: 10 to 45 h
NC(=O)c1nc(F)cnc1O,8.3,,24,,9,26,,,inhibition [24]: Active; inhibition [25]: Active; inhibition [26]: inactive
CC(=O)O[C@@H]1[C@H](OC(C)=O)[C@@H](COP2(=O)OCc3cccc(C)c3O2)O[C@H]1n1ccnc(C(N)=O)c1=O (some centres not stated),128,400,> 400,> 400,> 400,> 400,400,,
CCCCCCCCCC(=O)Oc1ccc(COP(=O)(OCc2ccc(OC(=O)CCCCCCCCC)cc2)OP(=O)(O)OP(=O)(O)OC[C@H]2O[C@@H](n3ccnc(C(N)=O)c3=O)[C@H](O)[C@@H]2O)cc1.CCN(CC)CC.CCN(CC)CC,2.4,16,2.6,30,2.6,3.6,13,49 to 126,Drug metabolism [11]: Metabolite_Detected; Drug metabolism [12]: Metabolite_Detected; Drug metabolism [13]: Metabolite_Detected; IC50 [14]: 49 to 126 µM; Drug metabolism [15]: Metabolite_Detected; Drug metabolism [16]: Metabolite_Notdetected; Drug metabolism [17]: Metabolite_Detected; Drug metabolism [27]: Metabolite_Detected
Cc1cccc2c1OP(=O)(OC[C@@H]1CC[C@H](n3cnc4c(=O)[nH]cnc43)O1)OC2 (some centres not stated),,,,,,,,,half-life [10]: 10 to 45 h
NC(=O)c1nc(F)c[nH]c1=O,,> 250,,> 250,,,> 250,,Stability [28]: 65%; Drug metabolism [29]: Metabolite_Notdetected; Drug metabolism [30]: Metabolite_Detected
NC(=O)c1ncn([C@@H]2O[C@H](CO)[C@@H](O)[C@H]2O)n1 [RIBAVIRIN],4.5,59,,> 100,5.9,13,35,,
